US10434190B2, “Pre-and-intra-operative localization of penile sentinel nodes” (NOVADAQ TECHNOLOGIES ULC, priority 2006, dated 2019)
Entries after “also recorded” stand apart in the source; their conditions may differ.

Tests used:
[1] = test system: mammals; conditions: cited from earlier work; for neuronal toxicity: several months after the treatment
[2] = test system: male Sprague-Dawley rats; assay: Near infrared fluorescence (NIRF) imaging of lymph nodes after penile intracavernous ICG injection; type: in vivo, rat
Description: Twenty two 22 male Sprague-Dawley rats received penile intracavernous ICG injections (20 μl of 0.25 mg/ml). […] A Novadaq intraoperative NIRF imaging system (SPY®) was used for macroscopic fluorescence imaging and an Olympus NIRF microscope IX 70 (Olympus America, Inc., Center Valley, Pa.) was used for histology. All animals were anesthetized and shaved before imaging. All visualized nodes were sent for NIR microscopy and haematoxylin and eosin (H&E) staining for histological examination.
More than one pair of sentinel lymph nodes were visualized in 2 rats. […] Lymphatic channels were seen leading to sentinel lymph nodes at 6, 12 and 24 hours (FIG. 1). […] (FIG. 1). […] Thus, NIR fluorescence using ICG facilitates both pre- and intraoperative identification of the first site of penile lymphatic drainage. The methods of the invention should therefore improve the accuracy of surgical staging in patients with penile carcinomas.

[3] = cited from earlier work
[4] = 806 nm excitation light; cited from earlier work

Fast Blue
toxicity in mammals [1]: low evidence of toxicity | neuronal toxicity [1]: without evidence of neuronal toxicity

CC1(C)C(/C=C/C=C/C=C/C=C2\N(CCCCS(=O)(=O)O)c3ccc4ccccc4c3C2(C)C)=[N+](CCCCS(=O)(=O)[O-])c2ccc3ccccc3c21 [ICG, indocyanine green]
lymphatic channels leading to sentinel lymph nodes ([2]; 6, 12 and 24 hours post-injection): seen | how long lymph nodes could be seen through the body wall after injection ([2]; animal studies): for days | confirmation of lymph nodes by NIR microscopy and conventional histology ([2]; rats): All lymph nodes were confirmed | visualization of inguinal and iliac sentinel lymph nodes with NIRF ([2]; rats): clearly visualized | intraoperative confirmation of preoperative localization of inguinal nodes ([2]; rats, intraoperative NIRF): confirmed the preoperative localization of the inguinal nodes; also recorded: confirmed preoperative localization of all inguinal nodes | enterohepatic recirculation ([3]; in vivo): does not undergo enterohepatic recirculation | metabolism in the body ([3]; in vivo): not metabolized | reabsorption from the intestine ([3]; in vivo): not reabsorbed | route of excretion ([3]; in vivo): excreted exclusively by the liver | distribution after intravenous injection ([3]; normal vascular permeability): remains intravascular | emitted light wavelength [4]: 830 nm | toxicity in mammals [1]: low evidence of toxicity | neuronal toxicity [1]: without evidence of neuronal toxicity

N=C(N)c1ccc(/C=C/c2ccc(C(=N)N)cc2O)cc1 [Fluorogold]
toxicity in mammals [1]: low evidence of toxicity | neuronal toxicity [1]: without evidence of neuronal toxicity

CC1(C)C(/C=C/C=C/C=C/C=C2\N(CCCCS(=O)(=O)[O-])c3ccc4ccccc4c3C2(C)C)=[N+](CCCCS(=O)(=O)[O-])c2ccc3ccccc3c21.[Na+] [indocyanine green (ICG)]
shortest time after injection to ability to visualize the lymph nodes ([2]; animal model): 10 min
